≈ marks a conversion by molar mass, not a printed value.
How the values were obtained:
H9 [1] = experiment: Concentration which inhibited HIV-1 replication by 50% in acutely infected H9 cells; format: functional, cell-based; conditions: Homo sapiens
H9 [2] = experiment: Compound was tested for cytotoxic activity against acutely infected H9 cell growth.; format: functional, cell-based; conditions: Homo sapiens

SMILES | EC50 (H9 [1]) [µg/mL] | IC50 (H9 [2]) [µg/mL]
COc1ccc(C[C@@H]2COC(=O)[C@H]2Cc2ccc(O)cc2)cc1OC | 0.25 (≈ 0.73 µM) | 0.8 (≈ 2.34 µM)
COc1cc(C[C@@H]2C(=O)OC[C@H]2Cc2ccc(OC)c(OC)c2)ccc1O | 0.16 (≈ 0.43 µM) | 0.8 (≈ 2.15 µM)
COc1ccc(C[C@@H]2COC(=O)[C@H]2Cc2ccccc2)cc1OC | 2.2 (≈ 6.74 µM) | 20 (≈ 61.3 µM)
COc1ccc(C[C@@H]2COC(=O)[C@H]2Cc2cccc(O)c2)cc1OC | 1.8 (≈ 5.26 µM) | 4 (≈ 11.7 µM)
COc1ccc(C[C@@H]2COC(=O)[C@H]2Cc2ccc(O)c(O)c2)cc1OC | 1.5 (≈ 4.19 µM) | 6 (≈ 16.7 µM)
COc1ccc(C[C@@H]2COC(=O)C2)cc1OC | 34 (≈ 144 µM) | 100 (≈ 423 µM)
